{"source": "patent US6335036B1", "about": "“Granular pharmaceutical preparation of ebselen” (Daiichi Pharmaceutical Co., Ltd., priority 1996, dated 2002)", "origin": "cited, not measured here", "conditions": "known property, background art", "data": [{"smiles": "O=c1c2ccccc2[se]n1-c1ccccc1", "note": "[Ebselen, 2-phenyl-1,2-benzisoselenazol-3(2H)-one]", "values": [{"measurement": "Solubility in water", "result": "slightly soluble in water"}]}]}
